# According to ChEMBL document CHEMBL6109148, “Development of Squaramides as Allosteric Modulators of the CB1 Receptor: Synthesis, Computational Studies, Biological Characterization, and Effects against Cocaine-Induced Behavioral Sensitization and Reinstatement in Rats” (J Med Chem, 2025):
# Columns and labels:
# [1] = target: Cannabinoid receptor 2 (Homo sapiens) (UniProt P34972); assay: Antagonist activity at human CB2 receptor stably expressed in CHO-RD-HGA16 cells assessed as inhibition of CP55940-induced intracellular calcium mobilization at 10 uM by FLIPR assay relative to CP55940; format: functional, cell-based; design: scale not given: the % may be the effect or the level left
# Cannabinoid receptor 1 [2] = target: T1, Cannabinoid receptor 1 (Homo sapiens, UniProt P21554); assay: Agonist activity at human CB1 receptor stably expressed in CHO-RD-HGA16 cells assessed as increase in intracellular calcium mobilization at 10 uM by FLIPR assay relative to CP55940; format: functional, cell-based
# Cannabinoid receptor 1 [3] = target: T1, Cannabinoid receptor 1; assay: Negative allosteric modulation of human CB1 receptor stably expressed in CHO-RD-HGA16 cells assessed as inhibition of CP55940-induced intracellular calcium mobilization incubated for 15 mins by FLIPR assay; format: functional, cell-based
# Cannabinoid receptor 1 [4] = target: Cannabinoid receptor 1 (Mus musculus, UniProt P47746); assay: Negative allosteric modulation of CD-1 mouse CB1 receptor extracted from cerebellum membrane in presence of [35S]GTP-gammaS; format: cell membranes
# Cannabinoid receptor 1 [5] = target: T1, Cannabinoid receptor 1; assay: Negative allosteric modulation of human CB1 receptor extracted from HEK293 cell membrane in presence of [35S]GTP-gammaS; format: cell membranes
# Sequence of Cannabinoid receptor 2 (Homo sapiens) (P34972 whole entry): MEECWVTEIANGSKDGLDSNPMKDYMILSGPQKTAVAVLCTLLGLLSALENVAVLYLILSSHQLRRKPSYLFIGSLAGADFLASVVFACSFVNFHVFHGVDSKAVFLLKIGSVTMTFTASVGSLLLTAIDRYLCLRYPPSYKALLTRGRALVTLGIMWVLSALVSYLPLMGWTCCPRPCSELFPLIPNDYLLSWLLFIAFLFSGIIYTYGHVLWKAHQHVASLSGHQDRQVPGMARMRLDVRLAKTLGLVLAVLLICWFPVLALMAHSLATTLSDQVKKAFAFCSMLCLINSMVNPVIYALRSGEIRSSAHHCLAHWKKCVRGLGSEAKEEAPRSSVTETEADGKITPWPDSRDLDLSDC
# T1 sequence (P21554 whole entry): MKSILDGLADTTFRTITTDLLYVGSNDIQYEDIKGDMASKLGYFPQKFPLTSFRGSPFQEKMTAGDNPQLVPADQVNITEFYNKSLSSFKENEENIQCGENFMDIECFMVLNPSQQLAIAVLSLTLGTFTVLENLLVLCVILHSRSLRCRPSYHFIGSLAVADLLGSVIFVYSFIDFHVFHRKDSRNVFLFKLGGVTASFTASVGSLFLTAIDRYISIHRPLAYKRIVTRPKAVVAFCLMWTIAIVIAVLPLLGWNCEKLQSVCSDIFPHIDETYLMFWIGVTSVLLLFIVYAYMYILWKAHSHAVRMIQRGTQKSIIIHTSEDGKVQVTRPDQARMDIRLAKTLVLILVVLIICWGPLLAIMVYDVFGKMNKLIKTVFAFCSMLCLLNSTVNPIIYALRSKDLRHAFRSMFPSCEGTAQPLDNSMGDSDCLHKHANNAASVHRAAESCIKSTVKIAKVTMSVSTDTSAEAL
# Sequence of Cannabinoid receptor 1 (Mus musculus, UniProt P47746) (P47746 whole entry): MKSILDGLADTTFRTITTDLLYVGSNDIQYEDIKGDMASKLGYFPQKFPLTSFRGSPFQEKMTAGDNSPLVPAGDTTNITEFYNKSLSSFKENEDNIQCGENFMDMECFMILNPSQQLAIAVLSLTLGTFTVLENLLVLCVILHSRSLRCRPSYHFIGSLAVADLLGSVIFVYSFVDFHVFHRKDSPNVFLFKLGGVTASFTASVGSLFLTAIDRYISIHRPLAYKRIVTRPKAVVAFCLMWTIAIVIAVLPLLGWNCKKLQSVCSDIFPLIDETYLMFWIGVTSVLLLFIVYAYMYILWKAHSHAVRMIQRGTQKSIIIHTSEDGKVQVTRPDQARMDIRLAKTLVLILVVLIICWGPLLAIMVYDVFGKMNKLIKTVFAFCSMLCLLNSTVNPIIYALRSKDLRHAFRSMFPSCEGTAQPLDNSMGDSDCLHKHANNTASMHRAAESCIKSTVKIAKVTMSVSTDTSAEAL
Compound,Activity [1],Activity (Cannabinoid receptor 1 [2]),IC50 (Cannabinoid receptor 1 [3]),IC50 (Cannabinoid receptor 1 [4]),IC50 (Cannabinoid receptor 1 [5])
O=c1c(NCCc2ccc(Cl)cc2Cl)c(Nc2ccc(Cl)cc2)c1=O,< 50%,,,,
O=c1c(NCCc2ccccc2F)c(Nc2ccc(Cl)cc2)c1=O,< 50%,< 30%,269 nM,5620 nM,6610 nM
O=c1c(Nc2ccc(Cl)cc2)c(N2CCN(c3ccc(Cl)cc3)CC2)c1=O,< 50%,< 30%,> 10000 nM,,
O=c1c(NCCc2ccc(C(F)(F)F)cc2)c(Nc2ccc(Cl)cc2)c1=O,< 50%,< 30%,,,
Cc1ccc(CCNc2c(Nc3ccc(Cl)cc3)c(=O)c2=O)cc1C,< 50%,< 30%,427 nM,,
O=c1c(NCCc2ccc(Br)cc2)c(Nc2ccc(Cl)cc2)c1=O,< 50%,< 30%,> 10000 nM,,
Cc1ccc(CCNc2c(Nc3ccc(Cl)cc3)c(=O)c2=O)cc1,< 50%,< 30%,158 nM,646 nM,
O=c1c(NCCc2cccs2)c(Nc2ccc(Cl)cc2)c1=O,< 50%,< 30%,692 nM,,
O=c1c(NCCc2ccccc2C(F)(F)F)c(Nc2ccc(Cl)cc2)c1=O,< 50%,< 30%,,,
O=c1c(NCc2ccccc2)c(Nc2ccc(Cl)cc2)c1=O,< 50%,< 30%,> 10000 nM,,
O=c1c(NCCN2CCCCC2)c(Nc2ccc(Cl)cc2)c1=O,< 50%,< 30%,,,

# Further lines, results first:
Activity [1],Activity (Cannabinoid receptor 1 [2]),IC50 (Cannabinoid receptor 1 [3]),IC50 (Cannabinoid receptor 1 [4]),IC50 (Cannabinoid receptor 1 [5]),Compound
< 50%,< 30%,> 10000 nM,,,CCN(CC)c1ccc(CCNc2c(Nc3ccc(Cl)cc3)c(=O)c2=O)cc1
< 50%,< 30%,,,,O=c1c(NCCc2ccccn2)c(Nc2ccc(Cl)cc2)c1=O
< 50%,< 30%,,,,COc1ccccc1CCNc1c(Nc2ccc(Cl)cc2)c(=O)c1=O
< 50%,< 30%,912 nM,,,O=c1c(NCCc2ccc(F)cc2F)c(Nc2ccc(Cl)cc2)c1=O
< 50%,< 30%,> 10000 nM,,,CC(=O)c1ccc(CCNc2c(Nc3ccc(Cl)cc3)c(=O)c2=O)cc1
< 50%,< 30%,832 nM,,,O=c1c(NCCc2ccccc2Cl)c(Nc2ccc(Cl)cc2)c1=O
< 50%,< 30%,282 nM,,,O=c1c(NCCc2cccc(F)c2)c(Nc2ccc(Cl)cc2)c1=O
< 50%,< 30%,,,,CN(C)c1cccc(CCNc2c(Nc3ccc(Cl)cc3)c(=O)c2=O)c1
